The data set has as its system human recombinant carboxylesterases. The experiment in a line: In vitro metabolic stability (rate of metabolite formation) in human recombinant carboxylesterases. The conditions noted are these: human recombinant carboxylesterases 0.1 mg/mL, 1 μM test compound, pH 6.0, 37° C. The format is in vitro ADME. The method, then: Dutch Belted rabbits were euthanized with an overdose of sodium pentobarbital. The corneas were collected and homogenized in ice-cold potassium chloride solution (pH=7.4). The homogenate was centrifuged at 755×g for 30 min at 4° C. and aliquots of the supernatant were stored at or below −70° C. until metabolism experiments were conducted. Prior to storing the homogenates an aliquot was removed for determination of protein concentrations by calculating the 260 nm absorbance using a spectrophotometer. Human recombinant carboxylesterases were purchased from a commercial vendor (BD Gentest™, Bedford, Mass.)
All metabolic stability experiments were performed in triplicate in 96-well plate format. The final incubation mixture contained 1 μM test compound, 0.3 mg/mL corneal protein homogenate or 0.1 mg/mL human recombinant carboxylesterase mixture in a final volume of 0.5 mL 0.1 M potassium phosphate buffer (pH=6.0). The final percentage of solvent in the incubation was less than 1.0% to prevent inhibition of enzymatic activity. Following a pre-incubation at 37° C., test article (i.e. ester linked hybrids) was added to initiate the reaction. At designated time points (typically less than 60 minutes to capture the linear range of metabolite formation), 0.05 mL aliquots were removed from the incubation mixtures using a clean pipet tip and immediately placed in organic solvent to stop any esterase activity.
Hydrolysis of the metabolites was confirmed to be due to esterase activity and not chemical lability. The samples were analyzed by liquid chromatography with mass spectrometry (LC-MS/MS) detection to determine the metabolite concentrations resulting from the metabolism of ester linked hybrids. Internal standards were used to compensate for variability from sample processing, chromatographic elution, mass spectrometer response and ion suppression by matrix components.

Consider `COc1c(N2CC3CCCN(C(=O)OCOC(=O)CCC(=O)N[C@@H](C(=O)OCC(=O)[C@]4(O)CCC5C6CCC7=CC(=O)C=C[C@@]7(C)C6[C@H](O)C[C@]54C)C(C)C)C3C2)c(F)cc2c(=O)c(C(=O)O)cn(C3CC3)c12` (relative stereo) [Compound 61, rel-1-cyclopropyl-7-{1-[(10R)-14-[(10S,11R,13R,17S)-11,17-dihydroxy-10,13-dimethyl-3-oxo-6,7,8,9,10,11,12,13,14,15,16,17-dodecahydro-3H-cyclopenta[a]phenanthren-17-yl]-5,8,11,14-tetraoxo-10-(propan-2-yl)-2,4,12-trioxa-9-azatetradecan-1-oyl]octahydro-6H-pyrrolo[3,4-b]pyridin-6-yl}-6-fluoro-8-methoxy-4-oxo-1,4-dihydroquinoline-3-carboxylic acid], for which the “Rate of formation Metabolite 2 (Moxifloxacin)” value (from here on “Rate … (Moxifloxacin)”) worked out at 18.5 ± 1.7 nM/min/mg and the “Rate of formation Metabolite 1 (Prednisolone)” value (from here on “Rate … (Prednisolone)”) worked out at 11.8 ± 0.5 nM/min/mg.
As to `COc1c(N2C[C@@H]3CCCN[C@@H]3C2)c(F)cc2c(=O)c(C(=O)OCOC(=O)OCC(=O)[C@]3(O)CC[C@@H]4[C@H]5CCC6=CC(=O)C=C[C@@]6(C)C5[C@H](O)C[C@]43C)cn(C3CC3)c12` (relative stereo) [Compound 64, [({2-[(8R,10S,11R,13R,14R,17S)-11,17-dihydroxy-10,13-dimethyl-3-oxo-6,7,8,9,10,11,12,13,14,15,16,17-dodecahydro-3H-cyclopenta[a]phenanthren-17-yl]-2-oxoethoxy}carbonyl)oxy]methyl rel-1-cyclopropyl-6-fluoro-8-methoxy-7-[(4aS,7aS)-octahydro-6H-pyrrolo[3,4-b]pyridin-6-yl]-4-oxo-1,4-dihydroquinoline-3-carboxylate], the “Rate … (Moxifloxacin)” value came to 644 ± 20 nM/min/mg and the “Rate … (Prednisolone)” value is 641 ± 22 nM/min/mg.
On to `COc1c(N2C[C@@H]3CCCN[C@@H]3C2)c(F)cc2c(=O)c(C(=O)OC(C)OC(=O)OCC(=O)[C@]3(O)CC[C@@H]4[C@H]5CCC6=CC(=O)C=C[C@@]6(C)C5[C@H](O)C[C@]43C)cn(C3CC3)c12` (relative stereo) [Compound 65, 1-[({2-[(8R,10S,11R,13R,14R,17S)-11,17-dihydroxy-10,13-dimethyl-3-oxo-6,7,8,9,10,11,12,13,14,15,16,17-dodecahydro-3H-cyclopenta[a]phenanthren-17-yl]-2-oxoethoxy}carbonyl)oxy]ethyl rel-1-cyclopropyl-6-fluoro-8-methoxy-7-[(4aS,7aS)-octahydro-6H-pyrrolo[3,4-b]pyridin-6-yl]-4-oxo-1,4-dihydroquinoline-3-carboxylate], for which the “Rate … (Moxifloxacin)” value is 482 ± 72 nM/min/mg and the “Rate … (Prednisolone)” value is recorded as 364 ± 27 nM/min/mg.
Regarding `C[C@H]1C[C@H]2[C@@H]3CCC4=CC(=O)C=C[C@]4(C)[C@@]3(F)[C@@H](O)C[C@]2(C)[C@@]1(O)C(=O)COC(=O)CCC(=O)OC[C@@H](NC(=O)C(Cl)Cl)[C@H](O)c1ccc([N+](=O)[O-])cc1` (relative stereo) [Compound 73, (2R,3R)-2-[(dichloroacetyl)amino]-3-hydroxy-3-(4-nitrophenyl)propyl 2-[(8S,9R,10S,11S,13S,14S,16S,17R)-9-fluoro-11,17-dihydroxy-10,13,16-trimethyl-3-oxo-6,7,8,9,10,11,12,13,14,15,16,17-dodecahydro-3H-cyclopenta[a]phenanthren-17-yl]-2-oxoethyl rel-butanedioate], under “metabolite Betamethasone”, the “Rate of formation Metabolite 1 (Betamethasone)” value came to 1440 ± 120 nM/min/mg. For the same compound, the “Rate of formation Metabolite 2 (Chloramphenicol)” value (metabolite Chloramphenicol) turned out to be 107 ± 13 nM/min/mg.
Consider “rel-1-cyclopropyl-6-fluoro-7-[4-(4-{2-[(8R,9S,10R,11R,13R,14R,16S,17S)-9-fluoro-11,17-dihydroxy-10,13,16-trimethyl-3-oxo-6,7,8,9,10,11,12,13,14,15,16,17-dodecahydro-3H-cyclopenta[a]phenanthren-17-yl]-2-oxoethoxy}-4-oxobutanoyl)-3-methylpiperazin-1-yl]-8-methoxy-4-oxo-1,4-dihydroquinoline-3-carboxylic acid [Compound 10]”, for which the “Rate of formation Metabolite 1 (Dexamethasone)” value (metabolite Dexamethasone) is recorded as 737 ± 28 nM/min/mg. The “Rate of formation Metabolite 2 (Gatifloxacin)” value (metabolite Gatifloxacin) was 7.71 ± 0.57 nM/min/mg.

(Values after patent US20140256660A1, “ANTIBIOTIC CONJUGATES LINKED WITH STEROID DRUGS” (Allergan, Inc., priority 2013, published 2014).)
